Data published in the NIST ThermoML archive (doi:10.1007/s10765-008-0410-4).

Experiment: xn = mol fraction of the nth substance listed
Conditions: Liquid, Vibrating tube method

CCCCn1cc[n+](C)c1.F[B-](F)(F)F [1-butyl-3-methylimidazolium tetrafluoroborate] + CCO
Conditions | mass density [kg/m3]
348.15 K, 20740 kPa, x1 = 0.9152 | 1174.39
348.15 K, 20870 kPa, x1 = 1 | 1185.63
348.15 K, 21630 kPa, x1 = 0.3147 | 1023.15
348.15 K, 25140 kPa, x1 = 0.9152 | 1176.67
348.15 K, 25380 kPa, x1 = 0.0701 | 858.25
348.15 K, 25410 kPa, x1 = 0.7452 | 1149.62
348.15 K, 25430 kPa, x1 = 0.5384 | 1104.11
348.15 K, 25850 kPa, x1 = 1 | 1188.16
348.15 K, 26120 kPa, x1 = 0.3147 | 1025.95
348.15 K, 29980 kPa, x1 = 0.9152 | 1179.1
348.15 K, 30070 kPa, x1 = 0.7452 | 1152.07
348.15 K, 30110 kPa, x1 = 1 | 1190.19
348.15 K, 30220 kPa, x1 = 0.0701 | 861.8
348.15 K, 30550 kPa, x1 = 0.3147 | 1028.55
348.15 K, 30670 kPa, x1 = 0.5384 | 1107
348.15 K, 35070 kPa, x1 = 0.9152 | 1181.59
348.15 K, 35110 kPa, x1 = 1 | 1192.88
348.15 K, 35140 kPa, x1 = 0.7452 | 1154.63
348.15 K, 35170 kPa, x1 = 0.0701 | 865.16
348.15 K, 35620 kPa, x1 = 0.5384 | 1109.59
348.15 K, 35630 kPa, x1 = 0.3147 | 1031.33
348.15 K, 39560 kPa, x1 = 0.5384 | 1111.54
348.15 K, 39610 kPa, x1 = 1 | 1194.77
348.15 K, 39740 kPa, x1 = 0.9152 | 1183.8
348.15 K, 39940 kPa, x1 = 0.7452 | 1156.96
348.15 K, 40010 kPa, x1 = 0.3147 | 1033.56
348.15 K, 40030 kPa, x1 = 0.0701 | 868.18
373.15 K, 470 kPa, x1 = 1 | 1157.24
373.15 K, 510 kPa, x1 = 0.0701 | 812.28
373.15 K, 520 kPa, x1 = 0.7452 | 1117.1
373.15 K, 750 kPa, x1 = 0.5384 | 1069.65
373.15 K, 780 kPa, x1 = 0.9152 | 1145.53
373.15 K, 810 kPa, x1 = 0.3147 | 987.83
373.15 K, 5060 kPa, x1 = 0.5384 | 1072.77
373.15 K, 5090 kPa, x1 = 0.7452 | 1120.2
373.15 K, 5140 kPa, x1 = 0.9152 | 1148.26
373.15 K, 5350 kPa, x1 = 1 | 1160.25
373.15 K, 5790 kPa, x1 = 0.0701 | 818.18
373.15 K, 5820 kPa, x1 = 0.3147 | 992.08
373.15 K, 10070 kPa, x1 = 0.5384 | 1076.3
373.15 K, 10080 kPa, x1 = 1 | 1163.09
373.15 K, 10570 kPa, x1 = 0.9152 | 1151.58
373.15 K, 10610 kPa, x1 = 0.7452 | 1123.82
373.15 K, 10950 kPa, x1 = 0.3147 | 996.25
373.15 K, 11040 kPa, x1 = 0.0701 | 823.77
373.15 K, 15080 kPa, x1 = 0.9152 | 1154.27
373.15 K, 15130 kPa, x1 = 0.0701 | 827.92
373.15 K, 15340 kPa, x1 = 0.5384 | 1079.9
373.15 K, 15710 kPa, x1 = 1 | 1166.39
373.15 K, 15730 kPa, x1 = 0.3147 | 999.95
373.15 K, 15840 kPa, x1 = 0.7452 | 1127.11
373.15 K, 19860 kPa, x1 = 0.3147 | 1003.02
373.15 K, 20090 kPa, x1 = 0.7452 | 1129.7
373.15 K, 20540 kPa, x1 = 0.9152 | 1157.45
373.15 K, 20610 kPa, x1 = 0.5384 | 1083.37
373.15 K, 20970 kPa, x1 = 1 | 1169.38
373.15 K, 21220 kPa, x1 = 0.0701 | 833.79
373.15 K, 24670 kPa, x1 = 0.9152 | 1159.79
373.15 K, 25130 kPa, x1 = 0.0701 | 837.37
373.15 K, 25460 kPa, x1 = 0.7452 | 1132.84
373.15 K, 25820 kPa, x1 = 1 | 1172.07
373.15 K, 25930 kPa, x1 = 0.5384 | 1086.76
373.15 K, 25990 kPa, x1 = 0.3147 | 1007.35
373.15 K, 29760 kPa, x1 = 0.9152 | 1162.61
373.15 K, 30010 kPa, x1 = 0.5384 | 1089.27
373.15 K, 30070 kPa, x1 = 0.7452 | 1135.43
373.15 K, 30120 kPa, x1 = 1 | 1174.39
373.15 K, 30260 kPa, x1 = 0.0701 | 841.81
373.15 K, 30670 kPa, x1 = 0.3147 | 1010.47
373.15 K, 35030 kPa, x1 = 0.5384 | 1092.26
373.15 K, 35180 kPa, x1 = 0.7452 | 1138.19
373.15 K, 35220 kPa, x1 = 0.3147 | 1013.34
373.15 K, 35520 kPa, x1 = 0.0701 | 846.1
373.15 K, 35530 kPa, x1 = 1 | 1177.22
373.15 K, 36740 kPa, x1 = 0.9152 | 1166.35
373.15 K, 39820 kPa, x1 = 0.3147 | 1016.1
373.15 K, 39820 kPa, x1 = 1 | 1179.41
373.15 K, 39840 kPa, x1 = 0.0701 | 849.4
373.15 K, 39870 kPa, x1 = 0.9152 | 1167.99
373.15 K, 39920 kPa, x1 = 0.7452 | 1140.63
373.15 K, 39940 kPa, x1 = 0.5384 | 1095.08
398.15 K, 860 kPa, x1 = 0.9152 | 1128.45
398.15 K, 870 kPa, x1 = 1 | 1141.05
398.15 K, 920 kPa, x1 = 0.5384 | 1049.06
398.15 K, 940 kPa, x1 = 0.7452 | 1098.62
398.15 K, 960 kPa, x1 = 0.3147 | 966.26
398.15 K, 1010 kPa, x1 = 0.0701 | 788.85
398.15 K, 5060 kPa, x1 = 0.5384 | 1052.44
398.15 K, 5120 kPa, x1 = 0.7452 | 1101.74
398.15 K, 5750 kPa, x1 = 0.0701 | 795.42
398.15 K, 5840 kPa, x1 = 0.9152 | 1131.83
398.15 K, 6350 kPa, x1 = 0.3147 | 971.33
398.15 K, 6670 kPa, x1 = 1 | 1144.53
398.15 K, 9630 kPa, x1 = 0.9152 | 1134.36
398.15 K, 10070 kPa, x1 = 0.7452 | 1105.35
398.15 K, 10150 kPa, x1 = 0.0701 | 801.14
398.15 K, 10420 kPa, x1 = 0.5384 | 1056.68
398.15 K, 10490 kPa, x1 = 1 | 1147.07
398.15 K, 10930 kPa, x1 = 0.3147 | 975.46
398.15 K, 15030 kPa, x1 = 0.5384 | 1060.22
398.15 K, 15080 kPa, x1 = 0.7452 | 1108.88
398.15 K, 15110 kPa, x1 = 0.0701 | 807.16
398.15 K, 15620 kPa, x1 = 0.3147 | 979.51
398.15 K, 15730 kPa, x1 = 1 | 1150.32
398.15 K, 16470 kPa, x1 = 0.9152 | 1138.81
398.15 K, 19970 kPa, x1 = 0.5384 | 1063.89
398.15 K, 20040 kPa, x1 = 0.9152 | 1141.07
398.15 K, 20150 kPa, x1 = 0.3147 | 983.26
398.15 K, 20640 kPa, x1 = 0.7452 | 1112.68
398.15 K, 20740 kPa, x1 = 0.0701 | 813.42
398.15 K, 20980 kPa, x1 = 1 | 1153.78
398.15 K, 24980 kPa, x1 = 0.5384 | 1067.49
398.15 K, 25120 kPa, x1 = 0.9152 | 1144.22
398.15 K, 25130 kPa, x1 = 0.0701 | 817.89
398.15 K, 25140 kPa, x1 = 1 | 1156.3
398.15 K, 25170 kPa, x1 = 0.3147 | 987.21
398.15 K, 25370 kPa, x1 = 0.7452 | 1115.8
398.15 K, 30030 kPa, x1 = 0.5384 | 1070.98
398.15 K, 30280 kPa, x1 = 0.7452 | 1118.94
398.15 K, 30410 kPa, x1 = 0.3147 | 991.12
398.15 K, 30450 kPa, x1 = 0.9152 | 1147.45
398.15 K, 30850 kPa, x1 = 0.0701 | 823.16
398.15 K, 30890 kPa, x1 = 1 | 1159.52
398.15 K, 35070 kPa, x1 = 0.5384 | 1074.35
398.15 K, 35140 kPa, x1 = 0.7452 | 1121.93
398.15 K, 35160 kPa, x1 = 0.3147 | 994.46
398.15 K, 35740 kPa, x1 = 0.9152 | 1150.56
398.15 K, 35810 kPa, x1 = 1 | 1162.4
398.15 K, 35860 kPa, x1 = 0.0701 | 827.28
398.15 K, 39560 kPa, x1 = 1 | 1164.38
398.15 K, 39850 kPa, x1 = 0.3147 | 997.59
398.15 K, 39860 kPa, x1 = 0.9152 | 1152.93
398.15 K, 39920 kPa, x1 = 0.7452 | 1124.78
398.15 K, 39940 kPa, x1 = 0.5384 | 1077.48
398.15 K, 39990 kPa, x1 = 0.0701 | 830.32
